In US9776965B2, “Pyrrolidin-2-one and piperidin-2-one derivatives as 11-beta hydroxysteroid dehydrogenase inhibitors” (Janssen Pharmaceutica N.V., priority 2004, dated 2017):

What was measured:
11b-HSD1 [1] = biological target: 11b-HSD1 (Homo sapiens, UniProt P28845); assay: Enzymatic assay, 11b-HSD1 dependent conversion of cortisone into cortisol (reductase activity); assay type: biochemical; conditions: recombinant protein, 2 μM cortisone, 45 min at 37 C; for IC50: read-out: [C1] HSD1-prot Reduct Score
Outline: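 Recombinant human 11b-HSD1 (11 µg) with 2 µM cortisone and 180 µM NADPH in 30 mM Tris-HCl pH 7.2, 1 mM EDTA, incubated 45 min at 37 °C. Cortisol formation was measured by HPLC with a corticosterone internal standard. Compounds were tested from 10^−5 M to 3.10^−9 M, and pIC50 was scored as 1 (<5), 2 (5–6) or 3 (>6).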

11b-HSD2 [2] = biological target: T1, 11b-HSD2 (Homo sapiens, UniProt P80365); assay: Enzymatic assay, 11b-HSD2 dependent dehydrogenase activity; assay type: biochemical; conditions: recombinant protein, 100 nM cortisol, 45 min at 37 C; read-out: [C1] HSD2 prot Dehydro Score
T1 sequence (P80365 1-405): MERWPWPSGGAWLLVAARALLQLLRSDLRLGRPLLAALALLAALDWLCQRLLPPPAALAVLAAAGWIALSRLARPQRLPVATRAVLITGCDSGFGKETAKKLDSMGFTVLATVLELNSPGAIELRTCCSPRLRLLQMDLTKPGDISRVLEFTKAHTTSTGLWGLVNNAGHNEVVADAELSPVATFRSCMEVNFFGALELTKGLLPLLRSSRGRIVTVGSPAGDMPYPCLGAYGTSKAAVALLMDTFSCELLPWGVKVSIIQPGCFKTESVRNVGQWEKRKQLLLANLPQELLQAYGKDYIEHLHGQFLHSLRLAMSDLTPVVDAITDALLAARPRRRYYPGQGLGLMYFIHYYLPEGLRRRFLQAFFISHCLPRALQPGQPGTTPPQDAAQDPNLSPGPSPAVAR
Method: The effects on the 11b-HSD2 dependent dehydrogenase activity was studied in a reaction mixture containing 0.1M sodium phosphate buffer pH 7.5, 300 μM NAD, 100 nM cortisol (of which 2 nM is 3H-radio labelled), 1 μl drug and/or solvent and 2.5 μg recombinant protein in a final volume of 100 μl.
All incubations were performed for 45 min at 37 C in a water bath. The reaction was stopped by adding 100 μl acetonitrile containing 20 μg corticosterone as internal standard. After centrifugation, the product formation was analysed in the supernatant by HPLC on a Hypersyl BDS-C18 column using 0.05 mM ammonium acetate/methanol (50/50) as solvent. In all of the aforementioned assays, the drugs to be tested were taken from a stock solution and tested at a final concentration ranging from […] to 3.10^−9M. From the thus obtained dose response curves, the pIC50 value was calculated and scored as follows; Score 1=pIC50 value<5, Score 2=pIC50 value in the range of 5 to 6, Score 3=pIC50 value>6. (in this table NT stands for Not Tested).

11b-HSD1 [3] = biological target: T2, 11b-HSD1 (Mus musculus, UniProt P50172); assay: Cellular assay, 11b-HSD1 activity in differentiated 3T3-L1 cells; assay type: cell-based; conditions: 4 hour pre-incubation; for IC50: read-out: [C2] HSD1 cellular 3T3-L1 Score
T2 construct: Fibroblasts were differentiated into adipocytes; endogenous in cells; host or cells: differentiated 3T3-L1 cells (ATCC-CL-173)
Outline: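 Differentiated mouse 3T3-L1 adipocytes pre-incubated 4 hours with compound (final 3.10^−9 to 10^−5 M), then 0.5 μCi ³H-cortisone or dehydrocorticosterone added for one hour. Medium extracted with diethyl ether and steroids resolved by HPLC; pIC50 from dose-response curves, reported as scores.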

11b-HSD2 [4] = biological target: T1, 11b-HSD2; assay: Cellular assay, 11b-HSD2 activity in HepG2 cells; assay type: cell-based; parameters: endogenous in cells; host or cells: HepG2 (ATCC HB-8065); conditions: 4 hour pre-incubation; for IC50: read-out: [C2] HSD2 cellular HepG2 Score
Method: The effects on 11b-HSD2 activity was studied in HepG2 and LCC-PK1-cells HepG2-cells (ATCC HB-8065) were seeded in 12 well plates at a density of 100,000 cells/ml and grown at 37 C in a humidified 5% CO2 atmosphere in MEM-Rega-3 medium supplemented with 10% heat inactivated foetal calf serum, 2 mM L-glutamine and sodium bicarbonate). Medium was refreshed twice a week.
Following a 4 hour pre-incubation with test compound, 0.5 μCi ^3H-cortisol or corticosterone, was added to the cultures. One hour later, the medium was extracted on Extrelut^3-columns with 15 ml diethyl ether and the extract was analysed by HPLC as described above.
As for the enzymatic assays, the compounds to be tested were taken from a stock solution and tested at a final concentration ranging from […] to 3.10^−9M. From the thus obtained dose response curves, the pIC50 value was calculated and scored as follows; Score 1=pIC50 value<5, Score 2=pIC50 value in the range of 5 to 6, Score 3=pIC50 value>6. Some of the thus obtained results are summarized in the table below (in this table NT stands for Not Tested).

11b-HSD1 (Homo sapiens, UniProt P28845), sequence (P28845 whole entry): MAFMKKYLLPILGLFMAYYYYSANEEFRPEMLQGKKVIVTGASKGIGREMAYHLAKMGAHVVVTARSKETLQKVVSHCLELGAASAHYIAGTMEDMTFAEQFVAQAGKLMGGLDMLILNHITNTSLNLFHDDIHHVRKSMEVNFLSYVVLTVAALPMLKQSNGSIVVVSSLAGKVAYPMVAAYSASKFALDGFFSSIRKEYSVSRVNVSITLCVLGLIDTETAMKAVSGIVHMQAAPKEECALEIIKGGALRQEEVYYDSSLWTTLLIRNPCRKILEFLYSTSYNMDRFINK
T2 sequence (P50172 whole entry): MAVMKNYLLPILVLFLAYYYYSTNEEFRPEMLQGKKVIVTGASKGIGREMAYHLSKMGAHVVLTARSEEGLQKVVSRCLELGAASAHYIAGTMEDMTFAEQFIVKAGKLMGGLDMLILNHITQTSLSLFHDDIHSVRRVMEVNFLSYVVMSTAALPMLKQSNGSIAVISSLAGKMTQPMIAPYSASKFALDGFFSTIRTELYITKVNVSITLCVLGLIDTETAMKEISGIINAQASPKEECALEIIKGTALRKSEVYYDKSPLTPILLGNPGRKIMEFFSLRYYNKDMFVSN

IC50 (11b-HSD1 [1])	IC50 (11b-HSD2 [2])	IC50 (11b-HSD1 [3])	IC50 (11b-HSD2 [4])	[C1] HSD1-prot Reduct Score (11b-HSD1 [1])	[C2] HSD1 cellular 3T3-L1 Score (11b-HSD1 [3])	[C2] HSD2 cellular HepG2 Score (11b-HSD2 [4])	melting point	SMILES
< 1 µM	1 to 10 µM	> 10 µM	> 10 µM	–	–	–	–	CC[C@H](c1ccccc1)N1CC[C@@H](Cc2c(Cl)cccc2Cl)C1=O [Compound 97]
> 10 µM	–	< 1 µM	1 to 10 µM	–	–	–	–	C[C@@H](c1ccccc1)N1CC[C@H](Cc2cc3c(cc2Cl)OCO3)C1=O [Compound 154]
< 1 µM	1 to 10 µM	< 1 µM	> 10 µM	–	–	–	–	Cc1ccccc1C(C)[C@H]1CCN([C@@H](C)c2ccccc2)C1=O (stereo partly shown) [Compound 163]
–	–	–	–	3 (Score 3=pIC50 value>6)	3 (Score 3=pIC50 value>6)	1 (Score 1=pIC50 value<5)	–	Cc1cccc(C)c1C[C@H]1CCN([C@@H](C)c2ccccc2)C1=O [Compound 77]
> 10 µM	–	< 1 µM	> 10 µM	–	–	–	–	Cc1cccc(C)c1C[C@@H]1CCN([C@@H](C)c2ccccc2)C1=O [Compound 149]
> 10 µM	–	< 1 µM	> 10 µM	–	–	–	–	Cc1cccc(C)c1C[C@H]1CCN([C@@H](C)c2ccccc2)C1=O [Compound 148]
< 1 µM	1 to 10 µM	< 1 µM	> 10 µM	–	–	–	–	Cc1ccccc1C(C)[C@@H]1CCN([C@@H](C)c2ccccc2)C1=O (stereo partly shown) [Compound 162]
> 10 µM	–	< 1 µM	> 10 µM	–	–	–	–	C[C@@H](c1ccccc1)N1CC[C@@H](Cc2c(F)cccc2F)C1=O [Compound 70]
1 to 10 µM	–	< 1 µM	> 10 µM	–	–	–	–	Cc1ccc([C@H](O)[C@@H]2CCN([C@@H](C)c3ccccc3)C2=O)c(C)c1 [Compound 69]
< 1 µM	–	< 1 µM	> 10 µM	–	–	–	–	C[C@@H](c1ccccc1)N1CC[C@H](Cc2c(F)cccc2F)C1=O [Compound 71]
< 1 µM	1 to 10 µM	< 1 µM	> 10 µM	–	–	–	–	COc1ccc(C[C@@H]2CCN([C@@H](C)c3ccccc3)C2=O)c(Cl)c1OC [Compound 119]
> 10 µM	> 10 µM	< 1 µM	> 10 µM	–	–	–	–	COc1ccc(C[C@H]2CCN([C@H](C)c3ccccc3)C2=O)cc1 [Compound 65]

Further lines, the compound ahead of its results:

SMILES	IC50 (11b-HSD1 [1])	IC50 (11b-HSD2 [2])	IC50 (11b-HSD1 [3])	IC50 (11b-HSD2 [4])	[C1] HSD1-prot Reduct Score (11b-HSD1 [1])	[C2] HSD1 cellular 3T3-L1 Score (11b-HSD1 [3])	[C2] HSD2 cellular HepG2 Score (11b-HSD2 [4])	melting point
O=C1C(Cc2c(Cl)cccc2Cl)CCN1Cc1ccccc1 (stereo not shown) [Compound 59]	1 to 10 µM	> 10 µM	< 1 µM	> 10 µM	–	–	–	–
Cc1ccc(C[C@H]2CCN([C@@H](C)c3ccccc3)C2=O)cc1 [Compound 4]	> 10 µM	–	1 to 10 µM	> 10 µM	–	–	–	–
C[C@H](c1ccccc1)N1CC[C@H](Cc2ccccc2Cl)C1=O [Compound 41]	1 to 10 µM	> 10 µM	< 1 µM	> 10 µM	–	–	–	–
Cc1ccc(C[C@@H]2CCN([C@H](C)c3ccccc3)C2=O)cc1 [Compound 27]	> 10 µM	> 10 µM	< 1 µM	> 10 µM	–	–	–	–
C[C@@H](c1ccccc1)N1CC[C@H](Cc2c(Cl)cccc2Cl)C1=O [Compound 13]	< 1 µM	> 10 µM	< 1 µM	> 10 µM	–	–	–	–
O=C1C(Cc2ccccc2Cl)CCN1Cc1ccccc1 (stereo not shown) [Compound 57]	1 to 10 µM	> 10 µM	< 1 µM	> 10 µM	–	–	–	–
C[C@@H](c1ccccc1)N1CC[C@@H](Cc2ccccc2Cl)C1=O [Compound 10]	< 1 µM	> 10 µM	< 1 µM	> 10 µM	–	–	–	–
Cc1ccccc1CC1CCN(CCc2ccccc2)C1=O (stereo not shown) [Compound 28]	> 10 µM	> 10 µM	< 1 µM	> 10 µM	–	–	–	–
Cc1ccccc1C[C@@H]1CCN([C@@H](C)c2ccccc2)C1=O [Compound 1]	< 1 µM	> 10 µM	< 1 µM	> 10 µM	–	–	–	–
C[C@@H](c1ccccc1)N1CC[C@H](Cc2ccccc2Cl)C1=O [Compound 9]	1 to 10 µM	> 10 µM	< 1 µM	> 10 µM	–	–	–	–
COc1ccccc1C[C@H]1CCN([C@@H](C)c2ccccc2)C1=O [Compound 7]	1 to 10 µM	> 10 µM	< 1 µM	> 10 µM	–	–	–	–
O=C1C(Cc2c(Cl)cccc2Cl)CCN1CCc1ccccc1 (stereo not shown) [Compound 32]	< 1 µM	> 10 µM	< 1 µM	> 10 µM	–	–	–	–
C[C@H](c1ccccc1)N1CC[C@H](Cc2c(Cl)cccc2Cl)C1=O [Compound 45]	< 1 µM	> 10 µM	< 1 µM	> 10 µM	–	–	–	–
Cc1ccc(C[C@@H]2CCN([C@@H](C)c3ccccc3)C2=O)cc1 [Compound 3]	< 1 µM	–	1 to 10 µM	> 10 µM	–	–	–	–
C[C@@H](c1ccccc1)N1CC[C@H](Cc2ccccc2)C1=O [Compound 6]	1 to 10 µM	–	1 to 10 µM	> 10 µM	–	–	–	–
Cc1ccc(CC2CCN(CCc3ccccc3)C2=O)cc1 (stereo not shown) [Compound 35]	> 10 µM	> 10 µM	< 1 µM	> 10 µM	–	–	–	–
O=C1C(Cc2ccccc2Cl)CCN1CCc1ccccc1 (stereo not shown) [Compound 30]	< 1 µM	> 10 µM	< 1 µM	> 10 µM	–	–	–	–
O=C1C(Cc2cccc(Cl)c2Cl)CCN1CCc1ccccc1 (stereo not shown) [Compound 31]	1 to 10 µM	> 10 µM	< 1 µM	> 10 µM	–	–	–	–
C[C@@H](c1ccccc1)N1CC[C@@H](Cc2c(Cl)cccc2Cl)C1=O [Compound 14]	< 1 µM	> 10 µM	< 1 µM	> 10 µM	–	–	–	75 to 76 °C
Cc1ccccc1C[C@H]1CCN([C@@H](C)c2ccccc2)C1=O [Compound 2]	1 to 10 µM	–	1 to 10 µM	> 10 µM	–	–	–	–
C[C@@H](c1ccccc1)N1CC[C@@H](Cc2ccccc2)C1=O [Compound 5]	1 to 10 µM	–	1 to 10 µM	> 10 µM	–	–	–	–
